EC50 data for 26 compounds are collected here from patent US20250002471A1 (Gilead Sciences, Inc., priority 2020, published 2025).

Experiment [1] has as its target T1, TLR7 (Homo sapiens, UniProt Q9NYK1).
T1 construct: lymphocytes, monocytes and dendritic cells that express TLR7, TLR8 and TLR9; endogenous in cells; host or cells: human PBMCs from healthy donors
T1 sequence (Q9NYK1 27-1049): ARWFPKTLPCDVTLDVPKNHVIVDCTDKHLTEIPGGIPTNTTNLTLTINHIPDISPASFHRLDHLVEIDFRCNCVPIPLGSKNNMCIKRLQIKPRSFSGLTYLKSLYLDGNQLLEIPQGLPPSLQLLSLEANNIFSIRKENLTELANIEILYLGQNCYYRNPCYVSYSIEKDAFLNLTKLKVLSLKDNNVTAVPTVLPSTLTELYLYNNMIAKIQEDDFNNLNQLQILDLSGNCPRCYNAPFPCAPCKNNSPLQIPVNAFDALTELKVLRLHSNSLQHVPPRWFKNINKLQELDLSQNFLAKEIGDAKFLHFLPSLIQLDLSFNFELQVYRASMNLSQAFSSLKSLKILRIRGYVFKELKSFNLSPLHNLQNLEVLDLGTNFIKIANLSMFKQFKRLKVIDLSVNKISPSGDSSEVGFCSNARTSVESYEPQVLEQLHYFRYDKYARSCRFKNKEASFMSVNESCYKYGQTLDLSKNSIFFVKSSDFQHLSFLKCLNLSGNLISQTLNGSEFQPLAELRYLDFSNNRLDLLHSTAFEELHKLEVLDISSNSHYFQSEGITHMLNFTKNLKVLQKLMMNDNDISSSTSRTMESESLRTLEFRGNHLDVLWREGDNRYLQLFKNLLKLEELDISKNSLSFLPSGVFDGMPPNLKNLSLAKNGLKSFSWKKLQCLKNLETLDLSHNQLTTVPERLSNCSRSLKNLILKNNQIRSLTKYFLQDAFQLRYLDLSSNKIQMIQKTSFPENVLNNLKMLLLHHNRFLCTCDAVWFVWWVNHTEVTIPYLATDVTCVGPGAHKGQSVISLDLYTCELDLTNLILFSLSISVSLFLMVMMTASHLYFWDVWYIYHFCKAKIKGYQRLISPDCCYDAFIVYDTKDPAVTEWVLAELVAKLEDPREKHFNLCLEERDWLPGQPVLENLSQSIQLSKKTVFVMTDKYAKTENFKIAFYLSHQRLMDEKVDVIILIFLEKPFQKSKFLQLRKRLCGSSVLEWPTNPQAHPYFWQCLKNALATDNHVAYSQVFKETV
The experiment can be described thus: Human PBMC cell-based assay, TLR7 agonist GS-986 stimulation, cytokine (IL-6 and IFNα) readout. The conditions noted are these: human PBMCs, GS-986 400 nM, 6 hours; Table 26; read-out: TLR-7 EC50. From the text: (§1) Human peripheral blood mononuclear cells (PBMCs) consist of lymphocytes, monocytes and dendritic cells that express TLR7, TLR8 and TLR9. These cells respond to TLR7, TLR8 and TLR9 ligand stimulation and produce cytokines and chemokines in vitro and in vivo. Human PBMCs are therefore suitable to be used in a cell-based assay to assess the in vitro potency of a TLR 7, 8, and/or 9 antagonist. The result is expected to be more translatable to the pharmacodynamics response in vivo than cell line-based assays.
(§2) Cryopreserved human PBMCs from healthy donors were thawed and resuspended in RPMI-1640 media with L-glutamine (Corning) supplemented with 10% Fetal Bovine Serum (Hyclone) and 1X Penicillin-Streptomycin (Corning). After counting, the cell density was adjusted to 2 million cells/ml and incubated for 1 hour at 37° C., 5% CO2 for recovery. Following the recovery, the cells were plated by adding 50p per well (100,000 cells) to 384-well cell culture plates (Greiner) containing 250nl of test antagonists in 100% DMSO per well, in a 10 points dose response in quadruplicates. PBMCs were incubated in the presence of test antagonists for one hour at 37° C., 5% CO2 before being stimulated with a TLR7 or TLR9 agonist. GS-986 (Gilead Sciences) was used as the TLR7 agonist at a final concentration of 400 nM. ODN-2216 (InvivoGen) was used as the TLR9 agonist at a final concentration of 3μM. PBMCs were incubated in the presence of the test antagonist and the TLR7 (or TLR9) agonist for an additional 6 hours at 37° C., 5% CO2. At the end of the incubation, the cell culture plates were centrifuged at 500 g for 5 min, and the cell culture supernatant was collected. The level of cytokines (IL-6 and IFNα) in the supernatant was measured by electrochemiluminescence immunoassays (Mesoscale Discovery) following manufacturer's recommended protocols. The level of cytokine measured was plotted against the test antagonist concentration and fitted to a sigmoidal function to determine the EC50, which are shown below in Table 26.

Experiment [2] addresses T2, TLR9 (Homo sapiens, UniProt Q9NR96).
T2 construct: lymphocytes, monocytes and dendritic cells that express TLR7, TLR8 and TLR9; endogenous in cells; host or cells: human PBMCs from healthy donors
T2 sequence (Q9NR96 26-1032): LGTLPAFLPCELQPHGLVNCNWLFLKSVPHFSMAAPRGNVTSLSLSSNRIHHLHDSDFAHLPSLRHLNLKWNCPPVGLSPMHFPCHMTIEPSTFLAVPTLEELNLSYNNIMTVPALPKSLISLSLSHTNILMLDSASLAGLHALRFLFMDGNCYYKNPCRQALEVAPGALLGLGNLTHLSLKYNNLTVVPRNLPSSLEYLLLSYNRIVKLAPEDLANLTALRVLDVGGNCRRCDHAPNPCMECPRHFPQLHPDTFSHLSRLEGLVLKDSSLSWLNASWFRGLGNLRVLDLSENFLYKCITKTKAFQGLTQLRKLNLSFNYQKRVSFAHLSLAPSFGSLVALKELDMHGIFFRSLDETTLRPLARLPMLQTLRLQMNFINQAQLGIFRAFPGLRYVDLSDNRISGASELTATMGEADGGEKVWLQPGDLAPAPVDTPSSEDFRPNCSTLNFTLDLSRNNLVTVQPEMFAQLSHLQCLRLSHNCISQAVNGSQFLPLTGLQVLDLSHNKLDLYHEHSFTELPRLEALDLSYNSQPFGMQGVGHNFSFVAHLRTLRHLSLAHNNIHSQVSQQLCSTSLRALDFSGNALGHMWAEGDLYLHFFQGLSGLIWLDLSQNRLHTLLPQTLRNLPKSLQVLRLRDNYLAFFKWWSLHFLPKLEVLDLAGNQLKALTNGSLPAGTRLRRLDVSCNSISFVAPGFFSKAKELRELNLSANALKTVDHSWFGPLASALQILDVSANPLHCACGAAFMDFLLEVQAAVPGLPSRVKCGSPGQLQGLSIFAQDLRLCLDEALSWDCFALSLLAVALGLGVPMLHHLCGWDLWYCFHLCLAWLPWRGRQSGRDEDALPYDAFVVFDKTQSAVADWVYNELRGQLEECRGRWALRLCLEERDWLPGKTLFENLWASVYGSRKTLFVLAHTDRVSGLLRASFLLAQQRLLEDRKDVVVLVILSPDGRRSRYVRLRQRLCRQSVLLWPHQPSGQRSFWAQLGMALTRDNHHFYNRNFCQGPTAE
The experiment can be described thus: Human PBMC cell-based assay, TLR9 agonist ODN-2216 stimulation, cytokine (IL-6 and IFNα) readout. Conditions: human PBMCs, ODN-2216 3 μM, 6 hours; Table 26; read-out: TLR-9 EC50.
Description: as §1, §2

SMILES strings stand for the structures.

The EC50 is the concentration that produces a half-maximal response. `Cc1cc(-c2[nH]c3cc(-c4ccc(N5CC[C@@H](N)C5)nc4)ccc3c2C2CC2)cc(C)n1` [Example 105]: the figures for the half-maximal effective concentration (EC50) in experiment [1] and in experiment [2] were 0.0009 µM and 0.0312 µM, respectively.
As to `COc1ccc(-c2[nH]c3cc(-c4ccc(N5CCNCC5)nc4)ccc3c2C)cc1OC` [Example 81], the EC50 in experiment [1] was found to be 0.0344 µM; in experiment [2] it was 0.758 µM.
In the same order, the values of `Cc1cc(-c2[nH]c3cc(-c4ccn5ccnc5c4)ccc3c2C)cc(C)n1` [Example 57] are 0.2 µM and 0.306 µM.
In the same order, the values of `CCc1c(-c2cc(C)nc(C)c2)[nH]c2cc(-c3ccc(N4CCNCC4)nc3)ccc12` [Example 70, 2-(2,6-dimethylpyridin-4-yl)-3-ethyl-6-(6-(piperazin-1-yl)pyridin-3-yl)-1H-indole] are 0.0067 µM and 0.187 µM.
On the same counts, the results for `Cc1cc(-c2[nH]c3cc(-c4ccc(N5CCNCC5)nc4)ccc3c2C)nc(C)n1` [Example 96] are 0.144 µM and 0.609 µM.
Regarding `Cc1cc(-c2[nH]c3nc(-c4ccc(N5CCNCC5)nc4)ccc3c2C)cc(C)n1` [Example 150], the half-maximal effective concentration (EC50) in experiment [1] came out at 0.76 µM; in experiment [2], 0.0723 µM.
As to `Cc1cc(-c2[nH]c3cc(-c4ccc(N5CCNCC5)nc4)ncc3c2C)cc(C)n1` [Example 151], the half-maximal effective concentration (EC50) in experiment [1] is 0.867 µM; in experiment [2] it was 0.537 µM.
On the same counts, the results for `Cc1cc(-c2[nH]c3cc(-c4ccc5c(c4)ncn5C4CCNCC4)ccc3c2C)cc(C)n1` [Example 148, 5-[2-(2,6-dimethyl-4-pyridyl)-3-methyl-1H-indol-6-yl]-1-(4-piperidyl)benzimidazole] are 0.0118 µM and 0.142 µM.
In the same order, the values of `Cc1cc(-c2[nH]c3cc(-c4cccc(C(=O)N5CCN6CCC5C6)c4)ccc3c2C)cc(C)n1` (stereo not shown) [Example 127] are 0.0989 µM and 0.0747 µM.
On the same counts, the results for `Cc1cc(-c2[nH]c3cc(-c4ccc(C(=O)N5CC[C@@H](N)C5)cc4)ccc3c2C)cc(C)n1` [Example 124] are 0.0555 µM and 0.111 µM.
In the case of `Cc1cc(-c2[nH]c3cc(-c4ccc5cccnc5c4)ccc3c2C)cc(C)n1` [Example 47], the results for the concentration giving a half-maximal response (EC50) in experiment [1] and in experiment [2] were 0.652 µM and 0.4 µM, respectively.
In the same order, the values of `Cc1cc(-c2[nH]c3cc(-c4cnn(C5CCCNC5)c4)ccc3c2C)cc(C)n1` (stereo not shown) [Example 18] are 0.0899 µM and 0.0876 µM.
On to `Cc1cc(-c2[nH]c3cc(-c4ccc(C(=O)N5CCNCC5)cc4)ccc3c2C)cc(C)n1` [Example 8], for which the EC50 in experiment [1] turned out to be 0.0843 µM; in experiment [2], 0.0844 µM.
In the same order, the values of `Cc1cc(-c2[nH]c3cc(-c4ccc(N5CCN(C)CC5)nc4)ccc3c2C)cc(C)n1` [Example 41, 2-(2,6-dimethylpyridin-4-yl)-3-methyl-6-(6-(4-methylpiperazin-1-yl)pyridin-3-yl)-1H-indole] are 0.0129 µM and 0.0696 µM.
Consider `Cc1cc(-c2[nH]c3cc(-c4cccc(S(=O)(=O)N5CCNCC5)c4)ccc3c2C)cc(C)n1` [Example 69], for which the figures for the EC50 in experiment [1] and in experiment [2] were 0.209 µM and 0.0384 µM, respectively.
On the same counts, the results for `Cc1cc(-c2[nH]c3cc(-c4nc(C5CCNCC5)cs4)ccc3c2C)cc(C)n1` [Example 186, 2-(2-(2,6-dimethylpyridin-4-yl)-3-methyl-1H-indol-6-yl)-4-(piperidin-4-yl)thiazole] are 0.121 µM and 0.225 µM.
On the same counts, the results for `Cc1cc(-c2[nH]c3cc(-c4ccc(N5CCN(CC(F)F)CC5)nc4)ccc3c2C)cc(C)n1` [Example 141, 6-(6-(4-(2,2-difluoroethyl)piperazin-1-yl)pyridin-3-yl)-2-(2,6-dimethylpyridin-4-yl)-3-methyl-1H-indole] are over 1 µM and 0.12 µM.
For `Cc1ncc(-c2[nH]c3cc(-c4ccc(N5CCNCC5)nc4)ccc3c2C)cn1` [Example 82], the 50% effective concentration (EC50) in experiment [1] was found to be 0.503 µM; in experiment [2] it was 0.489 µM.
Take `Cc1c(-c2cn(C)c(=O)c3ccccc23)[nH]c2cc(-c3ccc(N4CCNCC4)nc3)ccc12` [Example 92]: the results for the 50% effective concentration (EC50) in experiment [1] and in experiment [2] were 0.664 µM and 1.68 µM, respectively.
In the same order, the values of `Cc1cncc(-c2[nH]c3cc(-c4ccc(N5CCNCC5)nc4)ccc3c2C)n1` [Example 98] are 1.13 µM and 1.52 µM.
`Cc1c(-c2cnn(C)c2)[nH]c2cc(-c3ccc(N4CCNCC4)nc3)ccc12` [Example 87]: the concentration for a half-maximal effect (EC50) in experiment [1] was determined as 2.18 µM; in experiment [2], 0.583 µM.
In the same order, the values of `CC(=O)N1CCN(c2ccc(-c3ccc4c(C)c(-c5cc(C)nc(C)c5)[nH]c4c3)cn2)CC1` [Example 107] are 0.224 µM and 0.717 µM.
On the same counts, the results for `Cc1cc(-c2[nH]c3cc(-c4ccc(N5CCN(C(=O)[C@@H]6CCCN6C)CC5)nc4)ccc3c2C)cc(C)n1` [Example 108] are 0.0445 µM and 0.0321 µM.
With `CNC(=O)CN1CCN(c2ccc(-c3ccc4c(C)c(-c5cc(C)nc(C)c5)[nH]c4c3)cn2)CC1` [Example 113, 2-(4-(5-(2-(2,6-dimethylpyridin-4-yl)-3-methyl-1H-indol-6-yl)pyridin-2-yl)piperazin-1-yl)-N-methylacetamide], the half-maximal effective concentration (EC50) was found to be 0.0688 µM in experiment [1] and 0.123 µM in experiment [2].
On to `Cc1cc(-c2[nH]c3cc(C(=O)N4CCC5(CCNCC5)CC4)ccc3c2C)cc(C)n1` [Example 180], for which the values for the EC50 in experiment [1] and in experiment [2] were over 1 µM and 0.835 µM, respectively.
In the same order, the values of `Cc1cc(-c2[nH]c3cc(-c4cnc(N5CCNCC5)c(C)c4)ccc3c2C)cc(C)n1` [Example 3] are 0.0228 µM and 0.0563 µM.
